Reference: patent US9150530B2, “Esters of 4, 9-dihydroxy-naphtho [2, 3-b] furans for disease therapies” (Zhoushan Haizhongzhou Xinsheng Pharmaceuticals Co., Ltd., priority 2011, dated 2015)
pIC50: −log10 of the molar value.

Experiments:
SK-MEL-28 = assay: Cell viability determination (MTT), SK-MEL-28; assay type: cell-based; settings: Homo sapiens, SK-MEL-28, malignant melanoma, 48 hour incubation, read-out: Drug concentrations for 50% cell viability (IC50)
Description: (§1) Cell Culture: A549, DLD1, SW480, LOVO, HT-29, Hela, U-20S, MES-SA, SK-MEL-28, Panc-1, DU-145, CNE, U251, Eca-109, MGC80-3, QGY-7701, BEL-7404, PLC/PRF/5, Huh-7, and SGC-7901 cells were maintained in Dulbecco's Modified Eagle Medium (DMEM) (imported from Invitrogen, Carlsbad, Calif., USA) supplemented with 10% fetal bovine serum (FBS) (Si Ji Qing, Hangzhou, China) and 1% penicillin/streptomycin/amphotericin B (imported from Invitrogen, Carlsbad, Calif., USA).
(§2) Cell Viability Determination: Popular MTT method (Archives of Biochemistry and Biophysics, 1993, 303: 474-482) was used to screen the in vitro effects of the invented drugs. Briefly, 5000 to 10000 cells were inoculated per well in a 96-well plate. After overnight incubation, drug was added to the wells at final concentration of 10 μM, […], 2.5 μM, 1.25 μM, or 1 μM, 0.75 μM, 0.5 μM and 0.25 μM in complete culture medium. Each dose level covered 4 equivalent wells. After 48 hour incubation, one tenth volume of 5 mg/mL MTT (thiazolyl blue tetrazolium bromide, Sigma-Aldrich) stock solution was added, and incubation was continued for 2 hours. Then medium was removed and 100 μL of isopropanol solution comprising 86% isopropanol, 4% aqueous 1 N HCl and 10% aqueous SDS solution (10% in concentration) was added. The absorbance of each well at 570 nm wavelength was measured by a micro-plate reader after gentle shaking for 20 minutes. Drug concentrations of 50% cell viability (IC50) were calculated by LOGIT method.

[1] = Metabolism in biological fluid (human whole blood, cancer cell lysate, liver microsomes, mouse oral uptake), HPLC; assay type: in vitro ADME; settings: liver microsomes or mouse oral uptake system, 20 μM, 37° C.
Protocol: Second, a major metabolite found after incubation of compound I, III, IV, VI or XIII in biological fluid, such as human whole blood, or cancer cell lysate, or liver microsomes, or mouse oral uptake system, is compound XII (FIG. 3). Similarly, a major metabolite found after incubation of compound V, VII or XIV in biological fluid is 2-(1-hydroxy-n-propyl)-naphtho[2,3-b]furan-4,9-dione (data not shown). Reduction of the position 2 substituent carbonyl group is part of quinone redox reaction as evidenced by the β-lapachone effect on the formation of compound XII in the compound XIII incubation mixture of human whole blood (part D of FIG. 3). The possible reaction mechanism is proposed as shown in scheme 7, in which the two electron reduction could be NQ01 catalyzed reduction or two successive cytochrome b5 reductase or p450 reductase catalyzed reaction. As substrate of these enzymes, β-lapachone could compete for the two electron or single electron reaction and thus reduced formation of the metabolism product.
Crystalline or amorphous solid of compound was mixed with excipient and suspended in 0.5% carboxymethylcellulose (CMC) solution in a mortar. Then the mixture was orally administered into ICR mouse at the predetermined dosage. At the predetermined time point, blood was drawn from the mouse and stored in the vial containing heparin. The blood samples were centrifuged at 6,000 rpm for 10 min, and plasmas were separated. To each plasma sample, 9 times volume of acetonitrile/methyl trifluoromethanesulfonate (1000:1) or acetonitrile/concentrated HCl (1000:1) was added. The resulting mixtures were vortexed and incubated in dry ice for 30 minutes or in −20° C. freezer for 3 hours, then centrifuged, and supernatants were separated for HPLC analysis using gradient B.
The biological systems for in vitro metabolism study include: human whole blood stabilized with sodium citrate; cancer cell lysate (obtained using freeze-thaw method, 10 mg/ml in protein concentration for use); liver microsomes with NADPH generation system (prepared according to the protocol provided by iPhase Pharma, Beijing, China);
10 mM of a compound of formula I or its analog or compound XIII in DMSO (however, compound VI was in DMF) was added into the biological system to a final concentration of 20 μM. The mixtures were incubated at 37° C. for predetermined time. To each sample, then 9 times volume of acetonitrile was added. The resulting mixtures were vortexed and incubated in dry ice for 30 minutes or in −20° C. freezer for 3 hours, then centrifuged, and supernatants were separated for HPLC analysis using gradient B.

MES-SA = assay: Cell viability determination (MTT), MES-SA; assay type: cell-based; settings: Homo sapiens, leiomyosarcoma, 48 hour incubation, read-out: Drug concentrations for 50% cell viability (IC50)
Description: as §1, §2

Panc-1 = assay: Cell viability determination (MTT), Panc-1; assay type: cell-based; settings: Homo sapiens, Panc-1, pancreatic cancer, 48 hour incubation, read-out: Drug concentrations for 50% cell viability (IC50)
Description: as §1, §2

Eca-109 = assay: Cell viability determination (MTT), Eca-109; assay type: cell-based; settings: Homo sapiens, Eca-109, esophageal cancer, 48 hour incubation, read-out: Drug concentrations for 50% cell viability (IC50)
Description: as §1, §2

LOVO = assay: Cell viability determination (MTT), LOVO; assay type: cell-based; settings: Homo sapiens, colorectal cancer, 48 hour incubation, read-out: Drug concentrations for 50% cell viability (IC50)
Description: as §1, §2

SW480 = assay: Cell viability determination (MTT), SW480; assay type: cell-based; settings: Homo sapiens, SW480, colorectal cancer, 48 hour incubation, read-out: Drug concentrations for 50% cell viability (IC50)
Description: as §1, §2

Hela = assay: Cell viability determination (MTT), Hela; assay type: cell-based; settings: Homo sapiens, cervical cancer, 48 hour incubation, read-out: Drug concentrations for 50% cell viability (IC50)
Description: as §1, §2

## CC(=O)Oc1c2ccccc2c(OC(=O)CNC(=O)OC(C)(C)C)c2oc(C(C)=O)cc12 [compound IV, 2-acetyl-4-acetoxy-9-[(tert-butoxycarbonyl)amino]acetoxy-naphtho[2,3-b]furan]
SK-MEL-28
  pIC50: 6.30 to 6.60
[1]
  Major metabolite found after incubation in biological fluid: compound XII
MES-SA
  pIC50: 6.38
Panc-1
  pIC50: 6.06
Eca-109
  pIC50: 5.79
LOVO
  pIC50: 5.71
SW480
  pIC50: 6.04
Hela
  pIC50: 6.07
